Here are results for 3 compounds from ChEMBL document CHEMBL1126993, “Synthesis of oxazolidinone phospholipid analogue as a new inhibitor of phospholipase A2” (Bioorg Med Chem Lett, 1993).

In assay [1] the target is T1, Phospholipase A2 (Homo sapiens, UniProt P04054). Briefly: Tested for inhibitory activity of compound against Phospholipase A2 (PLA2); showed no significant inhibitory activity. On the set-up: species or system Gloydius blomhoffi.
Target sequence in this assay (P04054 whole entry): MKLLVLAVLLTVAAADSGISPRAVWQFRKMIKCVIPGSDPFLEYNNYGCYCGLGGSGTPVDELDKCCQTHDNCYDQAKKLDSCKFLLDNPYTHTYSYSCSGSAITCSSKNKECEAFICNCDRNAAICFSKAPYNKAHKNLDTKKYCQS
In assay [2] the target is T1, Phospholipase A2. The assay is described as follows: Tested for binding affinity of compound against Phospholipase A2 (PLA2). Particulars: Gloydius blomhoffi; call rule not given here.
Target sequence in this assay (P04054 23-148 limits assumed): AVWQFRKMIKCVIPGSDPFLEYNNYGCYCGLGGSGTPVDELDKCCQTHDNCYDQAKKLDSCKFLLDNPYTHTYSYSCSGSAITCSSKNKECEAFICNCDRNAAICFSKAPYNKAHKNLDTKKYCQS

Turning to `CCCCCCCCCCCC(=O)N1C(=O)OC[C@H]1COP(=O)([O-])OCC[N+](C)(C)C`, the IC50 entry against Phospholipase A2 [1] is given as “Not Active”.

`CCCCCCCCCCCC(=O)N1C(=O)OC[C@@H]1COP(=O)([O-])OCC[N+](C)(C)C` had a 1/Ki at Phospholipase A2 [2] of 45000 M⁻¹.

Regarding `CCCCCCCCCCCC(=O)N[C@H](CCCC)COP(=O)([O-])OCC[N+](C)(C)C`, the 1/Ki at Phospholipase A2 [2] worked out at 270000 M⁻¹.
